Here are results for 2 compounds from patent US20180055812A1, “METHOD AND COMPOSITIONS FOR TREATMENT OF CANCER” (priority 2008, published 2018).

Read-outs that look alike come from different tables or passages of the source.

Assay [1] concerns H460 cells. The assay is classed as cell-based.
For assay [2], the system named is A549 cells. The format is cell-based.
[3] abbreviates: H460 cells, MTT, 5 days incubation.
Setting [4] is: A549 cells, MTT, 5 days incubation.

With `N.N.[Cl][Pt][Cl]` [Cisplatin, cis-diamminedichloroplatinum (II), reference compound], in assay [1] (setting [3]), the IC75 – broadly, the concentration needed for an effect of 75% – came to 1.7 µM and the IC90 (as a rule, the concentration at which the effect reaches the 90% level) is 2.5 µM. Moreover, the IC50 (in general, the concentration at which inhibition is half-maximal) in assay [1] (H460 non-small cell lung cancer cells, MTT, 5 days incubation) is 1 µM. Further, in assay [2] (setting [4]), the IC75 was found to be 2 µM and the IC90 worked out at 4 µM.

In assay [1], `O=[As][O-].[Na+]` [Sodium Meta Arsenite, sodium meta arsenite] came in with an IC50 of 10 µM, an IC75 of 20 µM and an IC90 of 30 µM. In assay [2], this compound had an IC50 of 13 µM, an IC75 of 19 µM and an IC90 of 17 µM.
